Residues, ends and D or L forms follow the SMILES beside them. *: point of attachment. Cbz = O=C(OCc1ccccc1)*
Assays:
proteasome = experiment: Proximity labeling (BioID) with PSMA4-miniTurbo, streptavidin enrichment and DIA mass spectrometry, with proteasome inhibition; type: cell-based, Homo sapiens
Protocol: For the “BioID” experiments, HEK293T lines were seeded at the density of approximately 1.6×10^4 cells/cm2 and incubated for 24 hours to allow cell attachment to the culture dish. The expression of BirA* or miniTurbo fusion proteins were induced by a single addition of tetracycline stock (solved in ethanol) exposing the cells to its final concentration of […] in total for 4 days. 2 hours (miniTurbo lines) or 24 hours (BirA* lines) prior to cell harvesting, 50 μM biotin was added to the culture media. For identification of proteasome substrates, PSMA4-miniTurbo or miniTurbo expressing cells were treated with 20 μM MG132 for 4 hours and/or 10 μM KB02-JQ1 for 12 hours. Upon treatment, cells were washed 3×times with PBS and harvested by trypsinization. For each sample, a pellet corresponding to 20 million cells was collected and snap-frozen in liquid nitrogen.
Cell pellets were thawed on ice were resuspended in 4.75 ml of BioID lysis buffer (50 mM Tris pH 7.5; 150 mM NaCl; 1 mM EDTA; 1 mM EGTA; 1% (v/v) Triton X-100; 1 mg/ml aprotinin; 0.5 mg/ml leupeptin; 250 U turbonuclease; 0.1% (w/v) SDS), followed by 1 hour incubation in the rotator mixer (STARLAB RM Multi-1) (15×rpm) at 4° C. to aid the lysis. Samples were then briefly sonicated in a Bioruptor Plus for 5 cycles (30 s ON/30 s OFF) at high setting and afterwards centrifuged at 20817×g, for 30 minutes at 4° C. to remove any debris.
Streptavidin coated Sepharose beads were acetylated by two successive treatments with 10 mM Sulfo-NHS-Acetate for 30 minutes at room temperature. The reaction was then quenched with 1 M Tris pH 7.5 (1:10 v/v) and then the beads were washed with 1×PBS and centrifuged at 2000×g for 1 minute at room temperature. This washing was performed 3 times in total. Cleared lysates were transferred to new tubes, 50 μl of acetylated beads added, and samples were incubated for 3 hours on the rotator (15×rpm) at 4° C. This was followed by centrifugation at 2000×g for 5 minutes at 4° C. and removal of 4.5 ml of the supernatant from each sample. […]

[1] = tested on: proteasome chymotrypsin-like activity; experiment: Proteasome activity assay (LLVY-AMC cleavage) on cell lysates; type: cell-based, Homo sapiens; settings: lysates of HEK293T lines expressing BirA* fusion proteins or BirA* control; 24 hours with vs without tetracycline
Protocol: Proteasome activity assay: The proteasome activity assay (PAA) was performed using the 20S proteasome activity assay kit (Millipore, APT280) following the manufacturer instructions. In short, cell pellets were thawed in ice-cold lysis buffer (50 mM HEPES pH 7.5; 5 mM EDTA; 150 mM NaCl; 1% (v/v) Triton X-100; 2 mM ATP) and left on ice for 30 minutes with short vortex steps (VWR international, VWR/444-1372) every 10 minutes. Samples were centrifuged at 20817×g, for 15 minutes at 4° C. to remove any debris. For protein amount estimation the EZQ Protein Quantitation Kit (Invitrogen, R33200) was used. 50 μg of protein extract were incubated with fluorophore-linked peptide substrate (LLVY-7-amino-4-methylcoumarin, AMC) for 60 minutes at 37° C. Proteasome activity was measured by quantification of fluorescent units from cleaved AMC at 380/460 nm using a microplate reader m1000 (Tecan).

CC(C)C[C@@H](C=O)NC(=O)[C@H](CC(C)C)NC(=O)[C@H](CC(C)C)NC(=O)OCc1ccccc1 [MG132] (Cbz-Leu-Leu-Leu-aldehyde)
impact on the biotinylated proteins quantified by mass spectrometry (principal component analysis) (proteasome; HEK293T PSMA4-miniTurbo, 20 μM MG132 4 hours): clear impact
number of proteins enriched relative to miniTurbo control only in presence of MG132 (potential proteasome substrates) (proteasome; HEK293T PSMA4-miniTurbo, 20 μM MG132 4 hours, log 2 fold change>1 and Q value<0.05): 296 proteins
enrichment of proteasome activators and ubiquitin in streptavidin pull downs, MG132-treated versus control cells (proteasome; HEK293T cells expressing PSMA4-miniTurbo, 20 μM MG132 for 4 hours, biotin 2 hours): prominent enrichment of proteasome activators and ubiquitin

CN(C)[C@@H]1C(O)=C(C(N)=O)C(=O)[C@@]2(O)C(O)=C3C(=O)c4c(O)cccc4[C@@](C)(O)[C@H]3C[C@@H]12 [tetracycline]
reduction of proteasome activity following addition of tetracycline [1]: 15-20%

From patent US20260243776A1, “A METHOD FOR DETECTING PROTEIN TARGETS OF AN ENZYME USING A BIOTIN LIGASE” (Leibniz-Institut für Alternsforschung - …, priority 2022, published 2026)
